PMC9749938, “Alkyltriphenylphosphonium turns naphthoquinoneimidazoles into potent membrane depolarizers against mycobacteria” (RSC Medicinal Chemistry, 2022)

Tested on: inverted membrane vesicles of M. smegmatis mc^24517 overexpressing NDH2 (TB-ndh)
Assay: NADH oxidation in inverted membrane vesicles, TB-ndh
Assay type: biochemical
Conditions: read-out: EC50 of activation of NADH oxidation, TB-ndh IMV

Structure (SMILES)	EC50 [nM]
CCCCCCCCn1c2c([n+](CCCC)c1C)C(=O)c1ccccc1C2=O.[Br-] [Compound 45, reference compound]	200
Cc1nc2c(n1CCCCCCCCCCC[P+](c1ccccc1)(c1ccccc1)c1ccccc1)C(=O)c1ccccc1C2=O.[I-] [Compound 7]	1400
CCCCn1c2c([n+](C3CCC4(CCCCC4)CC3)c1C)C(=O)c1ccccc1C2=O.[Br-] [Compound 44, reference compound]	3740
